Test results as given in ChEMBL document CHEMBL4507268 (2021).

Legend:
Settings in all cases: Compound concentration 1000.0 nM
[1] = target: Serine/threonine-protein kinase Nek6 (Homo sapiens) (UniProt Q9HC98)
[2] = target: 5'-AMP-activated protein kinase catalytic subunit alpha-1 (Homo sapiens) (UniProt Q13131)
[3] = target: Serine/threonine-protein kinase B-raf (Homo sapiens) (UniProt P15056)
[4] = tested on: Tyrosine-protein kinase ABL1 (Homo sapiens), P00519 [F317L]
[5] = tested on: ALK tyrosine kinase receptor (Homo sapiens), Q9UM73 [C1156Y]
Chain of ALK tyrosine kinase receptor (Homo sapiens), Q9UM73 [C1156Y] (Q9UM73 whole entry C1156Y, looked up): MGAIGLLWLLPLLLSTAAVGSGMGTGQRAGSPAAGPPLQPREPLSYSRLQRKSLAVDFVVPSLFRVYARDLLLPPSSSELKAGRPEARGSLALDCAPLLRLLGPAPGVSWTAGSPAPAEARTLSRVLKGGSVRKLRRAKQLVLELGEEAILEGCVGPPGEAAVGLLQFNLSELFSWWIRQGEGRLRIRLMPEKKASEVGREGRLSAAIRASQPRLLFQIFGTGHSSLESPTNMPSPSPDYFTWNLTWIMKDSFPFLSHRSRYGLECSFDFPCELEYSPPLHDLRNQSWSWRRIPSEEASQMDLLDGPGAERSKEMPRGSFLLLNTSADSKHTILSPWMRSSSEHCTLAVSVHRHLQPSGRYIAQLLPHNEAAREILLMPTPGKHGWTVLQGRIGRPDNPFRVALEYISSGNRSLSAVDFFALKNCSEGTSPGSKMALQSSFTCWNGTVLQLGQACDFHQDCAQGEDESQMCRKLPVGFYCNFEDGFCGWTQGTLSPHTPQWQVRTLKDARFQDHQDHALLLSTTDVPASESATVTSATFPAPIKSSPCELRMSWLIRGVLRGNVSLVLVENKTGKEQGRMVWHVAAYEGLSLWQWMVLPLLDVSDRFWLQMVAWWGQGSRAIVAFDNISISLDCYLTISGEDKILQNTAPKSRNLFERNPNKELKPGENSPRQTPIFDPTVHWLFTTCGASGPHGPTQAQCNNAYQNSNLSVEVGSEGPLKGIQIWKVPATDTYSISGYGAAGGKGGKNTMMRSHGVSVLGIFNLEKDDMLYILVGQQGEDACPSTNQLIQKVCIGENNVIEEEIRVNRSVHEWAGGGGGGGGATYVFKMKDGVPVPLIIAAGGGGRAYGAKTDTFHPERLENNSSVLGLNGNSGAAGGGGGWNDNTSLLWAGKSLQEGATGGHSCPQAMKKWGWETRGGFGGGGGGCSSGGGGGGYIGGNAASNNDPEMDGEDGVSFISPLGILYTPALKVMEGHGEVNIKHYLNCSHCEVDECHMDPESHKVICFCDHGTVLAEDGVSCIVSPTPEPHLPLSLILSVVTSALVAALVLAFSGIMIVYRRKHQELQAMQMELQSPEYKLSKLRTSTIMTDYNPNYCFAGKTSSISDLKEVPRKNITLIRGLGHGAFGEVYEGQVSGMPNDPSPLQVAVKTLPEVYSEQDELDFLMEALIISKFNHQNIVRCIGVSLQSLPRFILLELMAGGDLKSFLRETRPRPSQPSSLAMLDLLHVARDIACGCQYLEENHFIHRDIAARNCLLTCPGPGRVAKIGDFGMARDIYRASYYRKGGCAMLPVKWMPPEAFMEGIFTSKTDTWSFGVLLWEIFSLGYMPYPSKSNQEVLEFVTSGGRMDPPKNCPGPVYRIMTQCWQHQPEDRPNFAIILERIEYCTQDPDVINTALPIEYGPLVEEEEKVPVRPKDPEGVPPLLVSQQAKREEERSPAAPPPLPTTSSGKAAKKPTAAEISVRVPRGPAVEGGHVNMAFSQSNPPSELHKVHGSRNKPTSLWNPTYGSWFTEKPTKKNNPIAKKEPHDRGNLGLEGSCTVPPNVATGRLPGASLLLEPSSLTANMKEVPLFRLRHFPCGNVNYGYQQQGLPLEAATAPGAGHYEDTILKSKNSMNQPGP

[6] = target: Serine/threonine-protein kinase tousled-like 2 (Homo sapiens) (UniProt Q86UE8)
Chain of Serine/threonine-protein kinase tousled-like 2 (Homo sapiens) (Q86UE8 whole entry, looked up): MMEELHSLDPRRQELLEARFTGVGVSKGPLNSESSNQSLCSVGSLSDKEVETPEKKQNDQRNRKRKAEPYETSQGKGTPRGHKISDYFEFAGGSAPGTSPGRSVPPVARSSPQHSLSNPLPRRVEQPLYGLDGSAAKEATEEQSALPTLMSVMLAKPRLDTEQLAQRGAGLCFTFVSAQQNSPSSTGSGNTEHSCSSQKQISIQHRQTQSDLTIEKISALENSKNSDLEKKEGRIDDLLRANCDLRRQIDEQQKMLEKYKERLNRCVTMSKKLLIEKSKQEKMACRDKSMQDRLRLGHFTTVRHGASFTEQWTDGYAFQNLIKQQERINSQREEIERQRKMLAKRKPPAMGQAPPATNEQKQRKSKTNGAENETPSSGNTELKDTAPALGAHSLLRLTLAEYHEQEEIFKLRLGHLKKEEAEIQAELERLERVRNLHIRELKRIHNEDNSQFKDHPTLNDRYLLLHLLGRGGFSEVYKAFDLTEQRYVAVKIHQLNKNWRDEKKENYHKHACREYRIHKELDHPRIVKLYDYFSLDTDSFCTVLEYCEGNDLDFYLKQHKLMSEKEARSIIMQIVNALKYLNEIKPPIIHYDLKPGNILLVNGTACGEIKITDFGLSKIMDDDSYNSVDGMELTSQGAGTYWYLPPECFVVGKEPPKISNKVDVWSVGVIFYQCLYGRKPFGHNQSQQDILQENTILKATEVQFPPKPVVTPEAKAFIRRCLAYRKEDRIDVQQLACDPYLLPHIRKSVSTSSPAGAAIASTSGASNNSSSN

[7] = target: T1, Myosin-IIIb (Homo sapiens) (UniProt Q8WXR4)
T1 sequence (whole entry): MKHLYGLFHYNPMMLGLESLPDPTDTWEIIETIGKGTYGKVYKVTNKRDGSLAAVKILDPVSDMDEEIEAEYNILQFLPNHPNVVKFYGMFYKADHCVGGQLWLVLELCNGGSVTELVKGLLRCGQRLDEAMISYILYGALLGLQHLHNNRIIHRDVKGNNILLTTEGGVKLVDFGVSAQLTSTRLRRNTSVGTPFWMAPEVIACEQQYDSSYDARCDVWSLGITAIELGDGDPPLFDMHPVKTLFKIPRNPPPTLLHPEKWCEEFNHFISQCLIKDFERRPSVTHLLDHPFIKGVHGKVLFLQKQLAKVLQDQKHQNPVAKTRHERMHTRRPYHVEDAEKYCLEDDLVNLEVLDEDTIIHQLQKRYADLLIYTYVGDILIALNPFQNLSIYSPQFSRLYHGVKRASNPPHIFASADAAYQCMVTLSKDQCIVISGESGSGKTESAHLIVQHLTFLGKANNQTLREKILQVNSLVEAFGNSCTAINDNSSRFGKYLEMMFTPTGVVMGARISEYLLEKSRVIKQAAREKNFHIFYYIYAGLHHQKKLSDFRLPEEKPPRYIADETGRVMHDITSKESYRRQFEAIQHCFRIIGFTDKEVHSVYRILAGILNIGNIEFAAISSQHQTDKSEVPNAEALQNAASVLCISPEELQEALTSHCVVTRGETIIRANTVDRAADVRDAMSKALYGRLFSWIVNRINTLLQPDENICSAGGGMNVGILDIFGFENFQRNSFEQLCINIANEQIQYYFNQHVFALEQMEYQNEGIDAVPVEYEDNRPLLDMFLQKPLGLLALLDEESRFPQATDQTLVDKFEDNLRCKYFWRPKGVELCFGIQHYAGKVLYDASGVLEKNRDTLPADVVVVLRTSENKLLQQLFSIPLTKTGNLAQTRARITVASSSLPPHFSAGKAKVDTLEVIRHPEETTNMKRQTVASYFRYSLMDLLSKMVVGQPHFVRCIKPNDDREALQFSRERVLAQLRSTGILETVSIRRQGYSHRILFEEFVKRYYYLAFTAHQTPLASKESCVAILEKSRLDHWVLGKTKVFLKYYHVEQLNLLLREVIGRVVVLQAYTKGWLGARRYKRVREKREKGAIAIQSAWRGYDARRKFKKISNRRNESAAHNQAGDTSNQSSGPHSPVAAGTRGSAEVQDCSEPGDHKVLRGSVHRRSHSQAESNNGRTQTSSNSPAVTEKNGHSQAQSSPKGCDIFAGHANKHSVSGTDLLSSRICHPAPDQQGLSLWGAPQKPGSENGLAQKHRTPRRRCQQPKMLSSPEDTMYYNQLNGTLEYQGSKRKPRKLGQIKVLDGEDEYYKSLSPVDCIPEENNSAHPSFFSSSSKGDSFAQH

[8] = target: Leucine-rich repeat serine/threonine-protein kinase 2 (Homo sapiens) (UniProt Q5S007)
[9] = target: Serine/threonine-protein kinase 38-like (Homo sapiens) (UniProt Q9Y2H1)
Chain of Serine/threonine-protein kinase 38-like (Homo sapiens) (Q9Y2H1 2-464 limits assumed): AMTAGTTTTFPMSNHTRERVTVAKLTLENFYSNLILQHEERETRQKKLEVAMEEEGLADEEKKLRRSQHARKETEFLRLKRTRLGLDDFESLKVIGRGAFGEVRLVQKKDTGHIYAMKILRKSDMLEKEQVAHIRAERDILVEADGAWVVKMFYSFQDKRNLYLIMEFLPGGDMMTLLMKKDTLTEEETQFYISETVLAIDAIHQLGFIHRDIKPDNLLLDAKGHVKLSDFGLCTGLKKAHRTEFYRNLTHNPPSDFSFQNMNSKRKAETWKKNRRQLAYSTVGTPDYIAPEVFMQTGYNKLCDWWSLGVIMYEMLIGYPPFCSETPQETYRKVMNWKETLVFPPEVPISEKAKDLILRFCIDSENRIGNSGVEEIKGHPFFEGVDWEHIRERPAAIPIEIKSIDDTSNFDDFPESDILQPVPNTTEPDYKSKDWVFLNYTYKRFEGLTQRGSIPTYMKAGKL

[10] = target: T2, Tyrosine-protein kinase JAK3 (Homo sapiens) (UniProt P52333)
T2 sequence (whole entry): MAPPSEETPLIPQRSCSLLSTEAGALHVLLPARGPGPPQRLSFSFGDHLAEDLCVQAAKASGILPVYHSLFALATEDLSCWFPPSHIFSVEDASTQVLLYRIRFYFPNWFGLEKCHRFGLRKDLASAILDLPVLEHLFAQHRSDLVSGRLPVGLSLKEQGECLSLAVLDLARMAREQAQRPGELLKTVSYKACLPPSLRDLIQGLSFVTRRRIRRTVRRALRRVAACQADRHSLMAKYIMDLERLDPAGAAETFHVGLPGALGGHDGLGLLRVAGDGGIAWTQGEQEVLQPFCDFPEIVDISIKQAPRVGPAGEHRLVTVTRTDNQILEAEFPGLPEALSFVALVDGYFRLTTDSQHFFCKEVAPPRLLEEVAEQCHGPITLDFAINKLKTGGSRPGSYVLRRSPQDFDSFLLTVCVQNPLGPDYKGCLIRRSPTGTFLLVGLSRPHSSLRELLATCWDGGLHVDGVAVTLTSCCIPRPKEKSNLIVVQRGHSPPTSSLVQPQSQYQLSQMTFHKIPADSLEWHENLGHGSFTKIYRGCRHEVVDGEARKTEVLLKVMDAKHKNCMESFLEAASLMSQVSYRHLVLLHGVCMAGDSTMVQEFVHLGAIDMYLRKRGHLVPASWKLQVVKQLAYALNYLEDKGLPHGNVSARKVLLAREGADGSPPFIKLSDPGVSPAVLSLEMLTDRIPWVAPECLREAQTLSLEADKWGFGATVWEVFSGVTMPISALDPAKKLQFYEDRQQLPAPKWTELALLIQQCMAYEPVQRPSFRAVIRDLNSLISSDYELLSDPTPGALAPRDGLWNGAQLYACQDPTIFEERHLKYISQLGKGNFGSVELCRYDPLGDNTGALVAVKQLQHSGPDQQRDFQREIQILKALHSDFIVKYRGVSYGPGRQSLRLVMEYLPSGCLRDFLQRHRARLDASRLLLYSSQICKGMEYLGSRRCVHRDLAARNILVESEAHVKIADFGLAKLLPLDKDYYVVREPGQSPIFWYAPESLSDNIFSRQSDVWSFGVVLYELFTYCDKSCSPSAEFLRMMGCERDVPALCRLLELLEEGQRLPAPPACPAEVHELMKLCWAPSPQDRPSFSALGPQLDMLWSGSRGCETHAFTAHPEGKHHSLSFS

[11] = tested on: Tyrosine-protein kinase ABL1 (Homo sapiens), P00519 [H396P]
[12] = target: Tyrosine-protein kinase Lyn (Homo sapiens) (UniProt P07948)
Chain of Tyrosine-protein kinase Lyn (Homo sapiens) (P07948 2-512 limits assumed): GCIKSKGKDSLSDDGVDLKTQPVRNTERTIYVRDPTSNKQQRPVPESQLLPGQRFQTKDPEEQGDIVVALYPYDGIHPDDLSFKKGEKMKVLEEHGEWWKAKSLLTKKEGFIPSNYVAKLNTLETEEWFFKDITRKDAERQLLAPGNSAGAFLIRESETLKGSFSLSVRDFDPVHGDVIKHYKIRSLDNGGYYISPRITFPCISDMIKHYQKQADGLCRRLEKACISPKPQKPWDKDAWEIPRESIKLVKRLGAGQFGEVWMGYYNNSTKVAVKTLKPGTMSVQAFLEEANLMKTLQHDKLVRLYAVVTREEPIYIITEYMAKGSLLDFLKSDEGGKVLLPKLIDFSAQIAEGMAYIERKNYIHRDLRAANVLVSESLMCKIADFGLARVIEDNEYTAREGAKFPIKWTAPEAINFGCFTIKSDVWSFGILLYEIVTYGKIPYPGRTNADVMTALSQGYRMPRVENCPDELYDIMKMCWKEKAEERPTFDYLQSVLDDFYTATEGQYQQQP

Measured: residual activity

Chain of 5'-AMP-activated protein kinase catalytic subunit alpha-1 (Homo sapiens) (Q13131 whole entry, looked up): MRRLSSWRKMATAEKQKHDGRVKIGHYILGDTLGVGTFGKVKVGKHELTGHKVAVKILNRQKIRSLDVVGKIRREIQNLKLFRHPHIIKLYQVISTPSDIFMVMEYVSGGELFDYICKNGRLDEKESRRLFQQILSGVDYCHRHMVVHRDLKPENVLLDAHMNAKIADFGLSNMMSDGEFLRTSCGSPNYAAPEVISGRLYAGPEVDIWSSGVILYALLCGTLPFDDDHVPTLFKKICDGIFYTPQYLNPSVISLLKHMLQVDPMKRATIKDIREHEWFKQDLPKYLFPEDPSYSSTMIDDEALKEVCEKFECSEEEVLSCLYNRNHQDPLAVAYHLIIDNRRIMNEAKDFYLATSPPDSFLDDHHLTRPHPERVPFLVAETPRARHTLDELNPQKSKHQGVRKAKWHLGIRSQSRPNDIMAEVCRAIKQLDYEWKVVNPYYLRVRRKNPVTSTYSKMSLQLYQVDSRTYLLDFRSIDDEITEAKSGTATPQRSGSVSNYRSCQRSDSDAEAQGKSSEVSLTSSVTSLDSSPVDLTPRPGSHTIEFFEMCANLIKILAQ
Chain of Serine/threonine-protein kinase B-raf (Homo sapiens) (P15056 whole entry): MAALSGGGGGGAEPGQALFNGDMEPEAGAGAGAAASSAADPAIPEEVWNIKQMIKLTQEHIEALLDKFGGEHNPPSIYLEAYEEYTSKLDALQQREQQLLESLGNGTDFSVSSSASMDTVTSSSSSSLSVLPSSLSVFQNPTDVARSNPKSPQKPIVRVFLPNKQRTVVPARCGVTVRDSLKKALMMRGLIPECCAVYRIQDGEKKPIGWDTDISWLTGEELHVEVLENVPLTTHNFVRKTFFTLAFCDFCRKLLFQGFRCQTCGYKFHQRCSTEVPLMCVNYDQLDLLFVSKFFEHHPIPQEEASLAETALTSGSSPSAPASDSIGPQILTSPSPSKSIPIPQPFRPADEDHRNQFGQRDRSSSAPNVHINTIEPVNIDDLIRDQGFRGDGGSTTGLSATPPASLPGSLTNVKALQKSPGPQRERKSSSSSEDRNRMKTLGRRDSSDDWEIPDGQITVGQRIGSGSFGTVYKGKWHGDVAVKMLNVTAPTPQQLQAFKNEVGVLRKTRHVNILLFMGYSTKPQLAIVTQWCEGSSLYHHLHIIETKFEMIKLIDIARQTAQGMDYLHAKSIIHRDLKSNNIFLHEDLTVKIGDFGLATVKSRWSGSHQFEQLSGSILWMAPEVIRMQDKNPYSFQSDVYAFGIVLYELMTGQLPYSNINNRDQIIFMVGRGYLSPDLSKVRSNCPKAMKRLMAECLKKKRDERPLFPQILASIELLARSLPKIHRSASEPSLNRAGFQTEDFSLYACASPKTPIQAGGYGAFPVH
Chain of Serine/threonine-protein kinase Nek6 (Homo sapiens) (Q9HC98 whole entry): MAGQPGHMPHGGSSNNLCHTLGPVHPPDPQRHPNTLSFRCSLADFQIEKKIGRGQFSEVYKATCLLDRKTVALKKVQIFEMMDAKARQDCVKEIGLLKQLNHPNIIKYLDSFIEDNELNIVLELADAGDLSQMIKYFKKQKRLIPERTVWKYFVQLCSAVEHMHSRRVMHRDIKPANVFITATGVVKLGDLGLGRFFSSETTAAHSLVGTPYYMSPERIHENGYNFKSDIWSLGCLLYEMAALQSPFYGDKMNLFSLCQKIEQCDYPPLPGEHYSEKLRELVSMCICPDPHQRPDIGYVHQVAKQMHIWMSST

Cc1nc(C2CCN(C(=O)c3ccc(OC(F)(F)F)cc3N)CC2)c2ncc(N3CCN(C)CC3)cc2n1 [BAY-693]
inactive: [1] 100% | [2] 98% | [3] 100% | [4] 96% | [5] 100% | [6] 100% | [7] 71% | [8] 89% | [9] 100% | [10] 100% | [11] 78% | [12] 100%

CN1CCN(c2cnc3c(C4CCN(C(=O)c5ccc(OC(F)(F)F)cc5N)CC4)ncnc3c2)CC1 [BAY-885]
inactive: [1] 92% | [2] 87% | [3] 100% | [4] 100% | [5] 100% | [6] 89% | [7] 73% | [8] 100% | [9] 100% | [10] 100% | [11] 76% | [12] 75%
